The test system of one assay is RINm5F cells. Put plainly: tert-butyl hydroperoxide (tBHP) exposure of RINm5F cells. Type of assay: cell-based, rat. Conditions: Compound 1 supplementation. Here is the method: Islets were isolated from heterozygous human islet amyloid polypeptide transgenic (hIAPP^+/−)FVB/N mice (Jackson Laboratory, Bar Harbor, ME, USA), […] mice (Orientbio, Sungnam, Korea), and cynomolgus monkeys (Macaca fascicularis; Orientbio, Sungnam, Korea). For additional in vitro studies, rat insulinoma cells (RINm5F cells) were treated with or without Compound 1 during culture under tert-butyl hydroperoxide (tBHP) exposure or serum deprivation condition. RINm5F cells were suspended in DMEM medium (Gibco, Grand Island, NY, USA) containing 100 IU/mL penicillin and 100 μg/mL streptomycin, and cultured at 37° C. in a fully humidified 5% CO2 atmosphere. All experimental protocols in this study were approved by the Institutional Animal Care and Use Committee (IACUC) of Samsung Biomedical Research Institute.

Assay [1] deals with hIAPP oligomers in hIAPP+/− islets. Description: hIAPP oligomer accumulation (A11 antibody staining) after serum-deprived culture. Particulars: 72 hours serum-deprived culture, BSA+Compound 1 vs BSA group; FIG. 6F. Type of assay: cell-based, mouse. Here is the method:
Purified hIAPP^+/− FVB/N and C57BL/6J mouse were suspended in RPMI 1640 (Gibco, Grand Island, NY, USA) containing 100 IU/mL penicillin and 100 μg/mL streptomycin, and cultured at 37° C. in a fully humidified 5% CO2 atmosphere. Purified NHP islets were suspended in CMRL 1066 medium (Coming Life Sciences, Tewksbury, MA; catalog number 99-663-CV) containing 100 IU/mL penicillin and 100 μg/mL streptomycin, and cultured at 37° C. in a fully humidified 5% CO2 atmosphere. During the ex vivo culture of murine islets, three experimental groups were designated for experiments using hIAPP^+/− FVB/N and C57BL/6J mice islets: medium supplemented with 10% FBS (Tissue Culture Biologicals, Los Alamitos, CA, USA; catalog number 101; FBS group), medium supplemented with 0.625% bovine serum albumin (Qbiogene, Carlsbad, CA, USA; catalog number BSA003; BSA group), and medium supplemented with 0, 0.1, 1, 10 and 20 μM Compoun 1 plus 0.625% BSA (BSA+Compound 1 group). […]
Accumulation of hIAPP oligomers was evaluated using sections of hIAPP^+/− mice islets stained with A11 Ab (anti-oligomer antibody, Invitrogen) and insulin antibody (Dako). […] To quantify accumulation of hIAPP oligomers per islet, the proportion of A11-stained cells among total DAPI+islet cells was determined using confocal microscopy.

Assay [2] concerns STZ-induced diabetic hIAPP+/− FVB/N mice. Description: Marginal mass islet transplantation after serum-deprived culture with or without Compound 1. Type of assay: in vivo, mouse. On the procedure: A marginal mass renal subcapsular islet transplantation model was used to assess the in vivo islet function of hIAPP^+/− mice. To induce diabetes, 180 mg/kg of streptozotocin (STZ, Sigma-Aldrich) was administered to 8- to 10-week-old FVB/N mice. Mice were considered to have diabetes when two consecutive blood glucose level readings were higher than 300 mg/dL. Equal amounts (400 IEQ of islets per recipient) of islets isolated from hIAPP^+/− mice were allocated to the following two groups: culture medium supplemented with 0.625% BSA (BSA group) and 0.625% BSA plus Compound 1 (BSA+Compound 1 group) to evaluate the combined effect of Compound 1 on islet mass and function during ex vivo culture. After culture for 72 hours, islets were transplanted into the renal subscapular space of diabetic hIAPP^+/− mice. The IE number was calculated using the Ricordi algorithm by classifying islets according to their diameter. After islet transplantation, non-fasting blood glucose levels were measured three times a week for the first 2 weeks and twice a week for the last 2 weeks.
At 4 weeks after transplantation, the transplantation site on the kidney of mouse were removed and embedded in paraffin. Immunohistochemical staining is briefly explained in the following. After deparaffinization, 4-μm tissue sections were stained with the polyclonal guinea pig anti-insulin antibody (1:1000, A0546, DAKO, Denmark), glucacon (1:500, ab92517, abcam, United Kingdom) and amyloid (1:2500, #44-344, Invitrogen). Stained slides were observed using an Olympus BX40 light microscope (Olympus, Japan) with […] numeric aperture and ×40/0.75 numeric aperture objectives. Photographic images were collected with a digital camera (Olympus DP50) and analyzed using the Image-Pro Plus 5.1 software.
For quantification of the DAB-labeled β-cells, all slides were imaged at 10× on a Vectra 3.0 automated quantitative pathology imaging system and analyzed using inForm software (all from Perkin-Elmer, Waltham, MA, USA). The transplanted renal tissue sections were scanned for image acquisition and then to set the transplanted tissue segmentation, a number of representative regions of transplanted islet cells and regions to be excluded from the analysis such as renal tissues were examined by learn-by-example interface. For the β-cell segmentation, a spectral library was used to identify the hematoxylin-stained nuclei and the DAB-stained cytoplasm (β-cells) within the transplanted tissue. With these training sets, the algorithm for identifying only the DAB-stained cells in the transplanted tissue was verified. All the captured 10× images were analyzed, and the DAB-stained transplanted β-cells were counted.

With `O=S1(=O)CCN(Cc2cc(NC3CCOCC3)c3[nH]c(-c4ccccc4)cc3c2)CC1` [Compound 1], the “cellular toxicity (LDH release)” value with RINm5F cells (FIG. 4A) is listed as “markedly reduced”. In addition, the ROS contents entry in the assay on RINm5F cells (FIG. 4B) is “markedly reduced”. Further, the “proportion of accumulation of hIAPP oligomers” value in assay [1] was “significantly decreased”. Moreover, the “insulin positive area in the grafted tissue” value in assay [2] (islets cultured 72 hours with Compound 1, vs control group, FIG. 7F) was “greater”. For the same molecule, in assay [2] (islets cultured 72 hours with Compound 1, vs control, FIG. 7B), the posttransplant glucose levels entry is on record as “significantly better”. Moreover, the diabetes reversal rate result in assay [2] (islets cultured 72 hours with Compound 1, vs control, FIG. 7C) was “significantly better”. The “glucose levels during IPGTT” value in assay [2] (islets cultured 72 hours with Compound 1, vs control, FIG. 7D) is “significantly better”. The “AUC of glucose during IPGTT” value in assay [2] (islets cultured 72 hours with Compound 1, vs control, FIG. 7E) is “significantly better”.

Source of the values: US12677825B2, “Composition for protecting islet transplantation” (LG CHEM, LTD., priority 2020, dated 2026).
